Eleven molecules from US20170369523A1, “TEMPLATE-FIXED BETA-HAIRPIN PEPTIDOMIMETICS THAT ARE LIGANDS FOR G-PROTEIN-COUPLED RECEPTORS (GPCRS) AND ARE MODULATORS OF TRANSCRIPTION FACTORS AND COACTIVATORS” (POLYPHOR AG, priority 2008, published 2017) can be followed below.

Data set [1] can be described thus: in vitro. In kind it is cell-based. How it is done:
(§1) The cytotoxicity of the peptides to HELA cells (Acc57) and COS-7 cells (CRL-1651) was determined using the MTT reduction assay. Briefly, the method was as follows: 7000 HELA cells/well and 4500 COS-7 cells/well were seeded and grown in 96-well microtiter plates for 24 h at 37° C. at 5% CO2. Thereafter, time zero (Tz) was determined by MTT reduction (see below). The supernatant of the remaining wells was discarded, and fresh medium and compounds in serial dilutions (12.5, 25 and 50 μM, triplicates) were pipetted into the wells. After incubation of the cells for 48 h at 37° C. at 5% CO2 the supernatant was discarded again and 100 μL MTT reagent (0.5 mg/mL in RPMI1640 and DMEM, respectively)/well was added. Following incubation at 37° C. for 2 h the media were aspirated and the cells were spiked (100 μl isopropanol/well). The absorbance of the solubilized formazan was measured at 595 nm (OD595peptide). For each concentration averages were calculated from triplicates. The percentage of growth was calculated as follows: (OD595peptide-OD595Tz-OD595Empty well)/(OD595Tz-OD595Empty well)×100%. The GI50 (Growth Inhibition) concentrations were calculated for each peptide by using a trend line function for the concentrations (50, 25, 12.5 and 0 μM), the corresponding percentages and the value 50, (=TREND (C50:C0,%50:%0,50).

Data set [2] in a line: in vitro. The format is cell-based. How it is done:
as §1
The source holds these as a separate data set.

The subject of data set [3] is human red blood cells (hRBC). The format is cell-based. Conditions: red cells of human, 1 h. Here is the method:
The peptides were tested for their hemolytic activity against human red blood cells (hRBC). Fresh hRBC were washed three times with phosphate buffered saline (PBS) and centrifuged for 10 min at 2000×g. Compounds (100 μM) were incubated with 20% hRBC (v/v) for 1 h at 37° C. The final erythrocyte concentration was approximately 0.9×10^9 cells/mL. A value of 0% and 100% cell lyses, respectively, was determined by incubation of hRBC in the presence of PBS alone and 0.1% Triton X-100 in H2O, respectively. The samples were centrifuged, the supernatants were 20-fold diluted in PBS buffer and the optical densities (OD) were measured at 540 nm. The 100% lyses value (OD540H2O) gave an OD540 of approximately 1.3-1.8. Percent hemolysis was calculated as follows: […]

Data set [4] concerns the target T1, human UTR2 receptor (Homo sapiens, UniProt Q9UKP6).
T1 construct: expressed in transfected cells; host or cells: mouse pre-B cell line 300-19
T1 sequence (Q9UKP6 1-389): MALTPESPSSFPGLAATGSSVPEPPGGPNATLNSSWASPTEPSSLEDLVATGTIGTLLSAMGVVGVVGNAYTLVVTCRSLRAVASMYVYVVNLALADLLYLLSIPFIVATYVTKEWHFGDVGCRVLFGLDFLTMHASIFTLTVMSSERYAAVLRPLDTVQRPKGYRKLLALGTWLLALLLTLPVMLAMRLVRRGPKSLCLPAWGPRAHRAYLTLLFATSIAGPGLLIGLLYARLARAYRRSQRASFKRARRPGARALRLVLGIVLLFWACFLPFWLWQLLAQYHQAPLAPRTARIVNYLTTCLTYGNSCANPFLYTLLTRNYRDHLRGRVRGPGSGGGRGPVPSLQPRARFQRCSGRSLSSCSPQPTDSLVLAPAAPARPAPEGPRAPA
In words: Ca2+ assay: UTR2 receptor-agonizing and antagonizing activity (calcium mobilization, Flexstation). In kind it is cell-based. From the text:
2.3. Ca^2+− Assay: UTR2 Receptor-Agonizing and Antagonizing Activity of the Peptides
The mouse pre-B cell line 300-19 was stably transfected with the cDNA encoding the human UTR2 receptor (GenBank Acc# NM_018949), and expression was confirmed with a positive calcium signal in response to human urotensin (Sigma Aldrich). Increases in intracellular calcium were monitored using a Flexstation 384 (Molecular Devices, Sunnyvale, Calif.). The cells were batch loaded with the Calcium 4 Assay kit (Molecular Devices) in assay buffer (Hanks Balanced salt solution, HBSS, 20 mM HEPES, pH 7.4, 0.1% BSA) for 1 h at room temperature and labeled cells were dispensed into either black 96 well or 384 well assay plates (Greiner). Calcium mobilization induced by urotensin or test compounds was measured in the Flexstation 384 (excitation, 485 nm; emission, 525 nm) for 70 seconds. Agonist activity was determined by direct addition of ligand or peptides, while antagonists were identified by spiking the cells with test compounds prior to urotensin addition. A dose response curve (compound concentration versus % maximum response for urotensin) was determined for each active agonist and antagonist and was fitted to a four parameter logistic equation using SoftmaxPro 4.8 (Molecular Devices), from which EC50% and IC50% values were calculated.
For orientation: Calcium flux is commonly read through the fluorescence of an indicator in the cells.

A short description of data set [5]: Plasma stability, human plasma. In kind it is in vitro ADME. Conditions: 37° C., sampled up to 240 min. How it is done: (§2) The stability of the peptides in human and mouse plasma was determined by applying the following method: 315 μl/deep well of freshly thawed human plasma (Basler Blutspende-dienst) and mouse plasma (Harlan Sera-Lab, UK), respectively, were spiked with 35 μl/well of compound in PBS (100 μM, triplicate) and incubated at 37° C. At t=0, 15, 30, 60, 120 and 240 min aliquots of 50 μl were transferred to filtration plate wells containing 150 μl/well of acetonitrile. Following shaking for 2 min the occurred suspensions were filtrated by vacuum and finally. 100 μl of each filtrate were transferred to a propylene microtiter plate, and analyzed by LC/MS as follows: Column: Waters, XBridge C18, mobile phases: (A) water+0.1% formic acid and (B) acetonitrile/water, 95/5 (v/v)+0.1% formic acid, gradient: 5%-100% (B) in 2 minutes, electrospray ionization, MRM detection (triple quadrupole). The peak areas were determined and triplicate values were averaged. The stability was expressed in percent of the initial value at t=0. (tx/t0×100). By using the TREND function of EXCEL (Microsoft Office 2003) T1/2 were determined.

Data set [6] is described as follows: Plasma stability, mouse plasma. In kind it is in vitro ADME. Conditions: 37° C., sampled up to 240 min. How it is done:
as §2

Data set [7] has as its target T2, human UTR2 receptor (human, UniProt Q9UKP6 1-389).
T2 sequence (looked up): T1 sequence (Q9UKP6 1-389)
In words: cell-based or functional assay.

Where two headings read alike, the source gives them in different places. Bridge positions count the residues as written; N and C are the ends. Square brackets hold non-standard residues; d marks the D form. Peptide text beside a SMILES is read from it. Cha = N[C@@H](CC1CCCCC1)C(=O)O

Broadly, the GI50 is the concentration giving 50% growth inhibition. A word on the EC50: it is the midpoint of the concentration-response curve.

With `CC(C)C[C@@H]1NC(=O)[C@@H]2CSSC[C@H](NC(=O)[C@H](CC(=O)O)NC(=O)[C@@H]3CCCN3C(=O)[C@@H](CCC(=O)O)NC1=O)C(=O)N[C@@H](Cc1ccccc1)C(=O)N[C@@H](Cc1c[nH]c3ccccc13)C(=O)N[C@@H](CCCCN)C(=O)N[C@@H](Cc1ccc(O)cc1)C(=O)N2` [compound 30], the GI50 in the data set “in vitro [1]” and in the data set “in vitro [2]” was greater than 50 µM in each case. Besides, the “Hemolysis at 100 μM [%]” value in data set [3] came to 0%. The EC50 on human UTR2 receptor [4] was less than 0.002 µM. In addition, the “Plasmastability human pl. T1/2” value in data set [5] turned out to be 4 h. The “Plasmastability mouse pl. T1/2” value in data set [6] was 4 h.
For the molecule `CC(C)[C@@H]1NC(=O)[C@@H]2CSSC[C@H](NC(=O)[C@H](CC(=O)O)NC(=O)[C@@H]3CCCN3C(=O)[C@H]3CCCN3C1=O)C(=O)N[C@@H](Cc1ccccc1)C(=O)N[C@H](Cc1c[nH]c3ccccc13)C(=O)N[C@@H](CCCCN)C(=O)N[C@@H](Cc1ccc(O)cc1)C(=O)N2` [compound 34], the GI50 in the data set “in vitro [1]” and in “in vitro [2]” was greater than 50 µM in each case. Besides, the “Hemolysis at 100 μM [%]” value in data set [3] is reported as 0%. In addition, the EC50 at human UTR2 receptor [4] is less than 0.002 µM. In data set [5], the “Plasmastability human pl. T1/2” value amounted to 4 h. Also, the “Plasmastability mouse pl. T1/2” value in data set [6] was 4 h.
As to `CC(C)[C@@H]1NC(=O)[C@@H]2CSSC[C@H](NC(=O)[C@H](CC(=O)O)NC(=O)[C@@H]3CCCN3C(=O)[C@H]3CCCN3C1=O)C(=O)N[C@@H](Cc1ccccc1)C(=O)N[C@@H](Cc1c[nH]c3ccccc13)C(=O)N[C@@H](CCCCN)C(=O)N[C@@H](Cc1ccc(O)cc1)C(=O)N2` [compound 31], the GI50 in “in vitro [1]” and in “in vitro [2]” was greater than 50 µM throughout. Moreover, the “Hemolysis at 100 μM [%]” value in data set [3] was found to be 0%. Besides, the EC50 on human UTR2 receptor [4] is less than 0.002 µM. Moreover, in data set [5], the “Plasmastability human pl. T1/2” value was 4 h. In data set [6], the “Plasmastability mouse pl. T1/2” value turned out to be 4 h.
For the molecule `NCCCC[C@@H]1NC(=O)[C@H](Cc2c[nH]c3ccccc23)NC(=O)[C@H](Cc2ccccc2)NC(=O)[C@@H]2CSSC[C@H](NC(=O)[C@H](Cc3ccc(O)cc3)NC1=O)C(=O)N[C@@H](CC1CCCCC1)C(=O)N1CCC[C@@H]1C(=O)N1CCC[C@H]1C(=O)N[C@@H](CC(=O)O)C(=O)N2` [compound 35] (cyclo(DCFWKYC[Cha][dP]P); disulfide 2-7), the GI50 at 48 h in “in vitro [1]” (human) and in “in vitro [2]” (African green monkey) was greater than 50 µM each time. Moreover, the “Hemolysis at 100 μM [%]” value in data set [3] stood at 0%. For the same molecule, the “Plasmastability human pl. T1/2” value in data set [5] was 4 h. Besides, the “Plasmastability mouse pl. T1/2” value in data set [6] amounted to 4 h.
For the molecule `CC(C)C[C@@H]1NC(=O)[C@@H]2CSSC[C@H](NC(=O)[C@H](CC(=O)O)NC(=O)[C@@H]3CCCN3C(=O)[C@H]3CCCN3C1=O)C(=O)N[C@@H](Cc1ccc(O)cc1)C(=O)N[C@@H](Cc1c[nH]c3ccccc13)C(=O)N[C@@H](CCCCN)C(=O)N[C@@H](Cc1ccc(O)cc1)C(=O)N2` [compound 33], the GI50 in the data set “in vitro [1]” and in “in vitro [2]” was greater than 50 µM each time. Moreover, the “Hemolysis at 100 μM [%]” value in data set [3] is listed as 0%. For the same molecule, the EC50 at human UTR2 receptor [4] was less than 0.002 µM. For the same molecule, in data set [5], the “Plasmastability human pl. T1/2” value is 4 h. The “Plasmastability mouse pl. T1/2” value in data set [6] was 4 h.
As for `CC(C)C[C@@H]1NC(=O)[C@@H]2CSSC[C@H](NC(=O)[C@H](CC(=O)O)NC(=O)[C@@H]3CCCN3C(=O)[C@@H](CO)NC1=O)C(=O)N[C@@H](Cc1ccccc1)C(=O)N[C@@H](Cc1c[nH]c3ccccc13)C(=O)N[C@@H](CCCCN)C(=O)N[C@@H](Cc1ccc(O)cc1)C(=O)N2` [Ex. 28], the GI50 in the data set “in vitro [1]” and in the data set “in vitro [2]” was greater than 50 µM each time. For the same molecule, the “Hemolysis at 100 μM [%]” value in data set [3] is 0%. For the same molecule, the EC50 on human UTR2 receptor [4] is less than 0.002 µM. In addition, in data set [5], the “Plasmastability human pl. T1/2” value came to 4 h. Besides, in data set [6], the “Plasmastability mouse pl. T1/2” value came to 4 h.

B1: Ex. 30 (peptide)
peptide: cyclo(DCFWKYCL[dE]P)
modifications: disulfide 2-7
SMILES: CC(C)C[C@@H]1NC(=O)[C@@H]2CSSC[C@H](NC(=O)[C@H](CC(=O)O)NC(=O)[C@@H]3CCCN3C(=O)[C@@H](CCC(=O)O)NC1=O)C(=O)N[C@@H](Cc1ccccc1)C(=O)N[C@@H](Cc1c[nH]c3ccccc13)C(=O)N[C@@H](CCCCN)C(=O)N[C@@H](Cc1ccc(O)cc1)C(=O)N2
With B1, the “EC50% (Ca2+ assay, agonist activity)” value with human UTR2 receptor [7] was less than 0.002 µM.

B2: Ex. 33 (peptide)
peptide: cyclo(DCYWKYCL[dP]P)
modifications: disulfide 2-7
SMILES: CC(C)C[C@@H]1NC(=O)[C@@H]2CSSC[C@H](NC(=O)[C@H](CC(=O)O)NC(=O)[C@@H]3CCCN3C(=O)[C@H]3CCCN3C1=O)C(=O)N[C@@H](Cc1ccc(O)cc1)C(=O)N[C@@H](Cc1c[nH]c3ccccc13)C(=O)N[C@@H](CCCCN)C(=O)N[C@@H](Cc1ccc(O)cc1)C(=O)N2
Take B2: the “EC50% (Ca2+ assay, agonist activity)” value with human UTR2 receptor [7] was less than 0.002 µM.
Still for that read-out and setting: with cyclo(DCF[dW]KYCV[dP]P) (disulfide 2-7) [Ex. 34] the figure was less than 0.002 µM; with cyclo(DCFWKYCV[dP]P) (disulfide 2-7) [Ex. 31], less than 0.002 µM.

B3: Ex. 28 (peptide)
peptide: cyclo(DCFWKYCL[dS]P)
modifications: disulfide 2-7
SMILES: CC(C)C[C@@H]1NC(=O)[C@@H]2CSSC[C@H](NC(=O)[C@H](CC(=O)O)NC(=O)[C@@H]3CCCN3C(=O)[C@@H](CO)NC1=O)C(=O)N[C@@H](Cc1ccccc1)C(=O)N[C@@H](Cc1c[nH]c3ccccc13)C(=O)N[C@@H](CCCCN)C(=O)N[C@@H](Cc1ccc(O)cc1)C(=O)N2
Regarding B3, the “EC50% (Ca2+ assay, agonist activity)” value in the data set with human UTR2 receptor [7] was less than 0.002 µM.
